Key:
[1] = pH of the agent solutions; format: physicochemical; details: for pH of solution prior to application: 5% concentration, solution applied to nail (FIG. 7)
[2] = Redox potential measurement against Ag/AgCl reference electrode; format: physicochemical; details: for Redox potential: urea-H2O2 with H2O2 content of 15%
[3] = 14C mannitol nail penetration study (nail diffusion cell); format: in vitro ADME, human; details: single penetration enhancer
Protocol: The single penetration enhancers were made up in the appropriate solvent and spiked with ^14C mannitol (10 μl of the stock ^14C mannitol). When more than one penetration enhancer was applied to the nails, only the last penetration enhancer was spiked with ^14C mannitol prior to nail application. ^14C mannitol with no penetration enhancer was used as a control.
Pre-calibrated nail diffusion cells were assembled with full thickness human nail. The receiver fluid, which consisted of a 20% ethanol/water mixture, was put into the receiver well up to the etched mark on the side arm. A magnetic follower was inserted and the cells were then placed on a magnetic stirrer in a water bath maintained at 32° C. Cells were checked for leakage and air bubbles. […] This was to ensure that no cells contained any residual radioactivity and these readings were also taken as the background for each cell. […]
After taking the background reading (described in the section above) 50 μl of ^3H water (ca. 18000 dpm) was placed on top of the nail in the assembled nail diffusion cell, using a pre-calibrated Gilson pipette. […] This value was used to normalise each nail and, if values of radioactivity were considered too high, then cells were rejected due to leaks. […]

[4] = Terbinafine diffusion study (ChubTur diffusion cell); format: in vitro ADME, human
Protocol: Human nail samples (full thickness) of ca. 3 mm diameter were positioned between the two halves of the specifically designed ChubTur™ diffusion cell and clamped together. The receptor compartment was filled with a previously sonicated suitable buffer system to ensure sink conditions and the cells were fixed on a perspex holder mounted on a magnetic stirrer in a water bath maintained at 32° C. The receptor chamber contents were continuously agitated by small PTFE-coated magnetic followers driven by a submersible magnetic stirrer. A known amount of formulation/drug solution was applied to the surface of the nail (infinite dose) and at regular time intervals samples of buffer were taken from the receptor compartment, replaced with fresh receptor medium and assayed for drug content using HPLC.

[5] = DTT concentration 0.005 % w/w, n = 2
[6] = DTT concentration 0.01 % w/w, n = 2
[7] = DTT concentration 0.05 % w/w, n = 2
[8] = DTT concentration 0.1 % w/w, n = 2
[9] = DTT concentration 1 % w/w, n = 2
[10] = DTT concentration 5 % w/w, n = 2
[11] = DTT concentration 7.5 % w/w, n = 2
[12] = DTT concentration 10 % w/w, n = 2
[13] = H2O2 concentration 0.005 % w/w, n = 3
[14] = H2O2 concentration 0.01 % w/w, n = 3
[15] = H2O2 concentration 0.05 % w/w, n = 3
[16] = H2O2 concentration 0.1 % w/w, n = 3
[17] = H2O2 concentration 1 % w/w, n = 3
[18] = H2O2 concentration 10 % w/w, n = 3
[19] = H2O2 concentration 20 % w/w, n = 3
[20] = H2O2 concentration 30 % w/w, n = 3
[21] = H2O2 concentration 32.5 % w/w, n = 3
[22] = H2O2 concentration 35 % w/w, n = 3
[23] = TA concentration 0.001% w/w, n = 3
[24] = TA concentration 0.005% w/w, n = 3
[25] = TA concentration 0.01% w/w, n = 3
[26] = TA concentration 0.05% w/w, n = 3
[27] = TA concentration 0.1% w/w, n = 3
[28] = TA concentration 2.5% w/w, n = 3
[29] = TA concentration 7.5% w/w, n = 3
[30] = TA concentration 10% w/w, n = 3
[31] = TA concentration 20% w/w, n = 3
[32] = Urea-H2O2, H2O2 content 0.0025 % w/w, n = 3
[33] = Urea-H2O2, H2O2 content 0.005 % w/w, n = 3
[34] = Urea-H2O2, H2O2 content 0.025 % w/w, n = 3
[35] = Urea-H2O2, H2O2 content 0.05 % w/w, n = 3
[36] = Urea-H2O2, H2O2 content 0.5 % w/w, n = 3
[37] = Urea-H2O2, H2O2 content 5 % w/w, n = 3
[38] = Urea-H2O2, H2O2 content 10 % w/w, n = 3
[39] = Urea-H2O2, H2O2 content 15 % w/w, n = 3
[40] = Urea-H2O2, H2O2 content 16.25 % w/w, n = 3
[41] = Urea-H2O2, H2O2 content 17.5 % w/w, n = 3

O[C@@H](CS)[C@@H](O)CS (racemic) [DTT, 1,4-dithio-DL-threitol]
Mean pH ([1]; 0.5M concentration, n = 3): 2.64 | Mean pH [1, 5]: 8.07 | Mean pH [1, 6]: 8.00 | Mean pH [1, 7]: 7.80 | Mean pH [1, 8]: 7.59 | Mean pH [1, 9]: 7.01 | Mean pH [1, 10]: 6.20 | Mean pH [1, 11]: 6.24 | Mean pH [1, 12]: 5.69 | Mean Redox Potential ([2]; 0.5M concentration, n = 3): −241.0 mV | Mean Redox Potential [2, 5]: −122.7 | Mean Redox Potential [2, 6]: −134.9 | Mean Redox Potential [2, 7]: −169.19 | Mean Redox Potential [2, 8]: −189.65 | Mean Redox Potential [2, 9]: −185.75 | Mean Redox Potential [2, 10]: −201.25 | Mean Redox Potential [2, 11]: −209.65 | Mean Redox Potential [2, 12]: −193.1

N.O=C(O)CS [Ammonium thioglycolate]
Mean pH ([1]; 0.5M concentration, n = 3): 6.29 | Mean Redox Potential ([2]; 0.5M concentration, n = 3): −235.9 mV

O=C([O-])CS.O=C([O-])CS.[Ca+2] [Calcium thioglycolate]
Mean pH ([1]; 0.5M concentration, n = 3): 11.74 | pH of solution prior to application [1]: 11.43 | Mean Redox Potential ([2]; 0.5M concentration, n = 3): −531.3 mV

CC12CCC(CC1)C(C)(C)O2 [Cineol]
Mean pH ([1]; 0.5M concentration, n = 3): 5.91 | Mean Redox Potential ([2]; 0.5M concentration, n = 3): 67.2 mV

Cl.N[C@@H](CS)C(=O)O.O [Cysteine, L-Cysteine hydrochloride hydrate]
Mean Redox Potential ([2]; 0.5M concentration, n = 3): −79.3 mV

O=C(O)CO [Glycolic acid]
Mean pH ([1]; 0.5M concentration, n = 3): 2.03 | Mean Redox Potential ([2]; 0.5M concentration, n = 3): 247.7 mV

OO [Hydrogen peroxide]
Mean pH ([1]; 0.5M concentration, n = 3): 6.21 | Mean pH [1, 13]: 7.56 | Mean pH [1, 14]: 7.46 | Mean pH [1, 15]: 6.78 | Mean pH [1, 16]: 6.71 | Mean pH [1, 17]: 6.17 | Mean pH [1, 18]: 3.79 | Mean pH [1, 19]: 3.16 | Mean pH [1, 20]: 2.64 | Mean pH [1, 21]: 2.54 | Mean pH [1, 22]: 2.55 | Mean Redox Potential ([2]; 0.5M concentration, n = 3): 277.3 mV | Mean Redox Potential [2, 13]: 142.3 | Mean Redox Potential [2, 14]: 153.0 | Mean Redox Potential [2, 15]: 200.4 | Mean Redox Potential [2, 16]: 193.5 | Mean Redox Potential [2, 17]: 231.6 | Mean Redox Potential [2, 18]: 357.2 | Mean Redox Potential [2, 19]: 402.8 | Mean Redox Potential [2, 20]: 430.4 | Mean Redox Potential [2, 21]: 437.9 | Mean Redox Potential [2, 22]: 444.5

O=C(O)C(=O)O [Oxalic acid]
Mean pH ([1]; 0.5M concentration, n = 3): 1.33 | Mean Redox Potential ([2]; 0.5M concentration, n = 3): 254.8 mV

O=S(=O)([O-])OOS(=O)(=O)[O-].[K+].[K+] [Potassium persulphate]
Mean pH ([1]; 0.5M concentration, n = 3): 2.83 | Mean Redox Potential ([2]; 0.5M concentration, n = 3): 402.5 mV

Oc1cccc(O)c1 [Resorcinol]
Mean pH ([1]; 0.5M concentration, n = 3): 5.67 | Mean Redox Potential ([2]; 0.5M concentration, n = 3): 8.6 mV

O=C([O-])CS.[Na+] [Sodium thioglycolate]
Mean pH ([1]; 0.5M concentration, n = 3): 6.90 | Mean Redox Potential ([2]; 0.5M concentration, n = 3): −281.7 mV

O=C(O)CS [Thioglycolic acid]
permeation of 14C mannitol through full thickness human nail ([3]; Saturated TA (50%), rank among the enhancers (FIG. 2)): best penetration enhancer of mannitol | permeation of 14C mannitol through full thickness human nail ([3]; TA 5%, compared to DTT (FIG. 2)): drop below that of the DTT | Mean pH ([1]; 0.5M concentration, n = 3): 2.13 | pH of solution prior to application [1]: 2.12 | Mean pH [1, 23]: 2.97 | Mean pH [1, 24]: 3.12 | Mean pH [1, 25]: 3.05 | Mean pH [1, 26]: 2.53 | Mean pH [1, 27]: 2.66 | Mean pH ([1]; TA concentration 1% w/w, n = 3): 2.23 | Mean pH [1, 28]: 1.71 | Mean pH ([1]; TA concentration 5% w/w, n = 3): 1.85 | Mean pH [1, 29]: 1.76 | Mean pH [1, 30]: 1.83 | Mean pH [1, 31]: 1.61 | Mean Redox Potential ([2]; 0.5M concentration, n = 3): −132.8 mV | Mean Redox Potential ([2]; 5% TA solution, approximate pH 2 (adjusted using NaOH), n = 3): −70.4 | Mean Redox Potential ([2]; 5% TA solution, approximate pH 3 (adjusted using NaOH), n = 3): −133.1 | Mean Redox Potential ([2]; 5% TA solution, approximate pH 4 (adjusted using NaOH), n = 3): −166.7 | Mean Redox Potential ([2]; 5% TA solution, approximate pH 5 (adjusted using NaOH), n = 3): −179.5 | Mean Redox Potential ([2]; 5% TA solution, approximate pH 6 (adjusted using NaOH), n = 3): −192.9 | Mean Redox Potential ([2]; 5% TA solution, approximate pH 8 (adjusted using NaOH), n = 3): −272.3 | Mean Redox Potential ([2]; 5% TA solution, approximate pH 10 (adjusted using NaOH), n = 3): −386.5 | Mean Redox Potential ([2]; 5% TA solution, approximate pH 11 (adjusted using NaOH), n = 3): −433.8 | Mean Redox Potential [2, 23]: −47.7 | Mean Redox Potential [2, 24]: −56.6 | Mean Redox Potential [2, 25]: −67.5 | Mean Redox Potential [2, 26]: −85.6 | Mean Redox Potential [2, 27]: −97.4 | Mean Redox Potential ([2]; TA concentration 1% w/w, n = 3): −119.8 | Mean Redox Potential [2, 28]: −126.5 | Mean Redox Potential ([2]; TA concentration 5% w/w, n = 3): −131.5 | Mean Redox Potential [2, 29]: −132.7 | Mean Redox Potential [2, 30]: −132.8 | Mean Redox Potential [2, 31]: −128.7

O=c1cc[nH]c(=S)[nH]1 [Thiouracil]
Mean pH ([1]; 0.5M concentration, n = 3): 6.28 | Mean Redox Potential ([2]; 0.5M concentration, n = 3): 53.4 mV

NC(N)=O.OO [Urea hydrogen Peroxide, Urea hydrogen peroxide addition compound]
Mean pH ([1]; 0.5M concentration, n = 3): 2.72 | Mean pH [1, 32]: 6.07 | Mean pH [1, 33]: 6.17 | Mean pH [1, 34]: 6.56 | Mean pH [1, 35]: 6.81 | Mean pH [1, 36]: 5.31 | Mean pH [1, 37]: 5.10 | Mean pH [1, 38]: 4.23 | Mean pH [1, 39]: 4.04 | Mean pH [1, 40]: 3.87 | Mean pH [1, 41]: 3.33 | Mean Redox Potential ([2]; 0.5M concentration, n = 3): 349.7 mV | Mean Redox Potential [2, 32]: 189.4 mV | Mean Redox Potential [2, 33]: 191.3 mV | Mean Redox Potential [2, 34]: 199.5 mV | Mean Redox Potential [2, 35]: 208.1 mV | Mean Redox Potential [2, 36]: 293.6 mV | Mean Redox Potential [2, 37]: 372.3 mV | Mean Redox Potential [2, 38]: 377.9 mV | Mean Redox Potential [2, 39]: 380.3 mV | Mean Redox Potential [2, 40]: 382.9 mV | Mean Redox Potential [2, 41]: 382.3 mV | Redox potential ([2]; approximate pH 2 (adjusted using HCl and NaOH), n = 3): 459.8 mV | Redox potential ([2]; approximate pH 4 (adjusted using HCl and NaOH), n = 3): 334.1 mV | Redox potential ([2]; approximate pH 6 (adjusted using HCl and NaOH), n = 3): 284.0 mV | Redox potential ([2]; approximate pH 8 (adjusted using HCl and NaOH), n = 3): 194.2 mV | Redox potential ([2]; approximate pH 10 (adjusted using HCl and NaOH), n = 3): 16.1 mV

O=C(O)/C=C/c1ccc(O)cc1 [p-coumaric acid]
Mean pH ([1]; 0.5M concentration, n = 3): 3.54 | Mean Redox Potential ([2]; 0.5M concentration, n = 3): 114.1 mV

CN(C/C=C/C#CC(C)(C)C)Cc1cccc2ccccc12 [terbinafine]
amount of drug penetrated the nail ([4]; nails soaked in 50:50 ethanol/water (control) for 20 h before drug, after 214 h): 44±13 μg per cm^2 | amount of drug penetrating the nail ([4]; pre-treatment with TA then urea-H2O2 for 30 min): less than 10 μg per cm^2 | amount of drug penetrating the nail ([4]; pre-treatment with TA then urea-H2O2 for 1 h): less than 10 μg per cm^2 | amount of terbinafine penetrating the human nail ([4]; pre-treatment with TA then urea-H2O2 for up to 20 h each, after 315 h): 3329±1842 μg per cm^2 | amount of drug penetrating the nail ([4]; pre-treatment with thioglycolic acid alone): 861±135 μg per cm^2 | amount of drug penetrating the nail ([4]; pre-treatment with urea-hydrogen peroxide alone): 47±33 μg per cm^2 | effect of pre-treatment on the amount of drug penetrating the nail ([4]; pre-treatment with urea-hydrogen peroxide versus control, p>0.05, ANOVA): no significant effect | amount of drug penetrating the nail ([4]; thioglycolic acid and urea-H2O2 applied sequentially prior to terbinafine, after 219 h): 2308±1332 μg per cm^2

Reference: patent publication US20080207537A1, “Topical Ungual Formulations” (priority 2005, published 2008)
